Test results: patent publication US11981676B1, “Pyrazolo[4,3-c][2,6]naphthyridines as CK2 inhibitors” (KING FAISAL UNIVERSITY, priority 2024, dated 2024)

What was measured:
[1] = target: T1, recombinant human CK2 (RRββ-holoenzyme) (Homo sapiens, UniProt P68400); experiment: CK2 Kinase Assay (33P-ATP, filter plate); assay type: biochemical; details: recombinant human CK2, final ATP 15 μM, 10 min at 30° C.; read-out: protein kinase CK2 IC50
T1 construct: purchased Millipore
Protocol: CK2 Kinase Assay was conducted using the protocol as described in Pierre F. et al; J. Med. Chem. 2011, 54, 635-654. The tested compounds in aqueous solution were added at a volume of 10 μL to a reaction mixture comprising 10 μL of assay dilution buffer (ADB; 20 mM MOPS, pH 7.2, 25 mM β-glycerol phosphate, 5 mM EGTA, 1 mM sodium orthovanadate, and 1 mM dithiothreitol), 10 μL of substrate peptide (RRRDDDSDDD, dissolved in ADB at a concentration of 1 mM), 10 μL of recombinant human CK2 (RRββ-holoenzyme, 25 ng dissolved in ADB; Millipore). Reactions were initiated by the addition of 10 μL of ATP solution (90% 75 mMMgCl2, 75 μM ATP (final ATP concentration:15 μM) dissolved in ADB; 10% [γ-33P] ATP (stock 1mCi/100 μL; 3000 Ci/mmol (Perkin-Elmer) and maintained for 10 min at 30° C. The reactions were quenched with 100 μL of 0.75% phosphoric acid and then transferred to and filtered through a phosphor cellulose filter plate (Millipore). After washing each well five times with 0.75% phosphoric acid, the plate was dried under vacuum for 5 min and, following the addition of 15 μL of scintillation fluid to each well, the residual radioactivity was measured using a Wallac […]. The IC50 values were derived from eight concentrations of test inhibitors.

A375 (melanoma) = experiment: In vitro cytotoxic activity MTT assay, A375; assay type: cell-based; details: Homo sapiens, A-375; A375 cells, exposed for 96 hours, 50% inhibition of cell proliferation; read-out: Cytotoxicity activity IC50, A375 (melanoma)
Protocol: (§1) Compounds 1-16 were screened for their in vitro cytotoxic activity utilizing a 3-(4,5-dimethyl-thiazol-2-yl)-2,5-diphenyltetrazolium bromide (MTT) assay against selected cancer human cell lines consisting of PC3 (prostate), HCT116 (colon), A375 (melanoma), H1299 (lung), MIAPaCa-2 (pancreas), HL60 (leukemia), MCF7 (breast), MDA-MB-231 (breast) (T. Mosmann, J. Immunol. Meth., 1983, 65, 55-63). The cells were cultured at 37° C. in RMPI1640 medium supplemented with 10% fetal bovine serum, 50 IU/mL penicillin, and 50 μg/mL streptomycin in a 5% CO2 incubator. All cells were sub-cultured 3 times/week by trypsinisation. Viable cells were seeded and allowed to adhere for 12 hours before a test drug was added in 96-well plates at an initial density of 1.0×10^5 cells/mL. Tumor cell lines were separately exposed to various concentrations of the tested compounds followed by incubation at a temperature of 37° C. during 96 hours inside a medium of fresh RMPI 1640. Cells were subsequently incubated at 37° C. using MTT at 0.5 mg/mL during 4 hours. After removal of supernatant, formazan crystals were dissolved in isopropanol and the optical density was measured at 570 nm. CX-4945 was used as a positive control.

MIAPaCa-2 (pancreas) = experiment: In vitro cytotoxic activity MTT assay, MIAPaCa-2; assay type: cell-based; details: Homo sapiens, MIA PaCa-2; MIAPaCa-2 cells, exposed for 96 hours, 50% inhibition of cell proliferation; read-out: Cytotoxicity activity IC50, MIAPaCa-2 (pancreas)
Protocol: as §1

MDA-MB-231 (breast) = experiment: In vitro cytotoxic activity MTT assay, MDA-MB-231; assay type: cell-based; details: Homo sapiens; MDA-MB-231 cells, exposed for 96 hours, 50% inhibition of cell proliferation; read-out: Cytotoxicity activity IC50, MDA-MB-231 (breast)
Protocol: as §1

MCF7 (breast) = experiment: In vitro cytotoxic activity MTT assay, MCF7; assay type: cell-based; details: Homo sapiens; MCF7 cells, exposed for 96 hours, 50% inhibition of cell proliferation; read-out: Cytotoxicity activity IC50, MCF7 (breast)
Protocol: as §1

PC3 (prostate) = experiment: In vitro cytotoxic activity MTT assay, PC3; assay type: cell-based; details: Homo sapiens, PC-3; PC3 cells, exposed for 96 hours, 50% inhibition of cell proliferation; read-out: Cytotoxicity activity IC50, PC3 (prostate)
Protocol: as §1

H1299 (lung) = experiment: In vitro cytotoxic activity MTT assay, H1299; assay type: cell-based; details: Homo sapiens, NCI-H1299; H1299 cells, exposed for 96 hours, 50% inhibition of cell proliferation; read-out: Cytotoxicity activity IC50, H1299 (lung)
Protocol: as §1

HL60 (leukemia) = experiment: In vitro cytotoxic activity MTT assay, HL60; assay type: cell-based; details: Homo sapiens, HL-60; HL60 cells, exposed for 96 hours, 50% inhibition of cell proliferation; read-out: Cytotoxicity activity IC50, HL60 (leukemia)
Protocol: as §1

HCT116 (colon) = experiment: In vitro cytotoxic activity MTT assay, HCT116; assay type: cell-based; details: Homo sapiens, HCT-116; HCT116 cells, exposed for 96 hours, 50% inhibition of cell proliferation; read-out: Cytotoxicity activity IC50, HCT116 (colon)
Protocol: as §1

T1 sequence (P68400 whole entry): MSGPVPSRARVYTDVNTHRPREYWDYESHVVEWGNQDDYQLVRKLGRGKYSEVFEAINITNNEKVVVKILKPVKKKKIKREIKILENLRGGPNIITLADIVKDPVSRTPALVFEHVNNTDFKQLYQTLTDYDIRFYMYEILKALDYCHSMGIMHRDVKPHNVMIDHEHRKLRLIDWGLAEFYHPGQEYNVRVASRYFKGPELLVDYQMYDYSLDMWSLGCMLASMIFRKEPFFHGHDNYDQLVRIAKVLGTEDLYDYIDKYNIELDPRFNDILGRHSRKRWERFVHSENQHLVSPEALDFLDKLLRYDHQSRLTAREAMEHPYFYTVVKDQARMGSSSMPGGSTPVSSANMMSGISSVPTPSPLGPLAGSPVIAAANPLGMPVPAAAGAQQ
T1 sequence (P67870 whole entry partner): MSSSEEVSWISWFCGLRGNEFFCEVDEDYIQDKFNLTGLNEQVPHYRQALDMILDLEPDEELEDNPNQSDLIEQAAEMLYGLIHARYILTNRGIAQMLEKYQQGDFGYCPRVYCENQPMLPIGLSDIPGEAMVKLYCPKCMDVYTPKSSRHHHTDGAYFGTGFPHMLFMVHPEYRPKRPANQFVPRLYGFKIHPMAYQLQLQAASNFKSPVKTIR

With O=C(O)c1n[nH]c2c1nc(Nc1cccc(Cl)c1)c1ccncc12 [Compound 1, 5-((3-chlorophenyl)amino)-1H-pyrazolo[4,3-c][2,6]naphthyridine-3-carboxylic acid] as the compound, how does the IC50 [1] read?
Its IC50 is 31 nM.

And the IC50 (A375 (melanoma))?
The IC50 was 4300 nM.

And the IC50 (MIAPaCa-2 (pancreas))?
The IC50 was 900 nM.

What about the IC50 (MDA-MB-231 (breast)) of the same compound?
The IC50 was 4100 nM.

And the IC50 (MCF7 (breast))?
Its IC50 is 4900 nM.

And the IC50 (PC3 (prostate))?
Its IC50 is 1800 nM.

And the IC50 (H1299 (lung))?
The IC50 was 2200 nM.

And the IC50 (HL60 (leukemia))?
The IC50 was 3000 nM.

What about the IC50 (HCT116 (colon)) of the same compound?
The IC50 was 1900 nM.
